Results reported in PMC10141580, “Cyclic Dichalcogenides Extend the Reach of Bioreductive Prodrugs to Harness Thiol/Disulfide Oxidoreductases: Applications to seco-Duocarmycins Targeting the Thioredoxin System” (ACS Central Science, 2023).
Several values for one entry are separate records, joined by “and”; a condition that tells them apart may be missing. Equal entries are not always repeated. Where two headings read alike, the source gives them in different places.

System: panel of 140 standard cancer cell lines
Test: ProliFiler-140 cancer cell line screen (CellTiterGlo, 72 h)
Type: cell-based
Conditions: for IC50: Homo sapiens
Procedure: Incubations were performed for 72 h before automated viability readout with CellTiterGlo (Figure 8).
End of Figure S11 (part 5 of 5): ProliFiler-140 cancer cell line screening for cytotoxicity of the prodrugs.
8-data-point dose response curves from CellTiter-Glo® viability readout.
ProliFiler-140 cell line panel part V

SMILES: COc1cc2cc(C(=O)N3C[C@@H](CCl)c4c3cc(OC(=O)N3CCN(C(=O)CCC(=O)N5CCN(C)CC5)[C@H]5CSSC[C@H]53)c3ccccc43)[nH]c2c(OC)c1OC [P-SS66C-CBI-TMI]
- IC50 (KG-1a, read-out: IC50 [M] (ProliFiler-140), KG-1 a (Blood)): 1.07e-07 M
- IC50 (KMS-12-BM, read-out: IC50 [M] (ProliFiler-140), KMS-12-BM (Blood)): 3.3e-08 M
- IC50 (LN-229, read-out: IC50 [M] (ProliFiler-140), LN229 (Brain)): 1.33e-07 M
- IC50 (LNCaP, read-out: IC50 [M] (ProliFiler-140), LnCap (Prostate)): 2.7e-08 M
- IC50 (LoVo, read-out: IC50 [M] (ProliFiler-140), LOVO (Colon)): 1.93e-08 M
- IC50 (MCF7, MCF-7): 3.1e-08 M
- IC50 (MCF7, read-out: IC50 [M] (ProliFiler-140), MCF-7 (Breast)): 3.1e-08 M
- IC50 (MDA-MB-231, read-out: IC50 [M] (ProliFiler-140), MDA MB 231 (Breast)): 1.36e-07 M
- IC50 (MDA-MB-435, MDA MB 435 (Skin), read-out: IC50 [M] (ProliFiler-140)): 1.3e-07 M
- IC50 (MDA-MB-468, MDA-MB-468): 1.9e-08 M
- IC50 (MDA-MB-468, read-out: IC50 [M] (ProliFiler-140), MDA-MB-468 (Breast)): 1.9e-08 M
- IC50 (MEC1, read-out: IC50 [M] (ProliFiler-140), MEC-1 (Blood)): 1.1e-08 M
- IC50 (MIA PaCa-2, read-out: IC50 [M] (ProliFiler-140), Mia PaCA 2 (Pancreas)): 8.56e-08 M
- IC50 (MKN-1, read-out: IC50 [M] (ProliFiler-140), MKN-1 (Stomach)): 1.4e-07 M
- IC50 (MKN-45, read-out: IC50 [M] (ProliFiler-140), MKN-45 (Stomach)): 8.2e-08 M
- IC50 (MOLM-13, read-out: IC50 [M] (ProliFiler-140), MOLM-13 (Blood)): 5.3e-09 M
- IC50 (MOLT-4, read-out: IC50 [M] (ProliFiler-140), MOLT-4 (Blood)): 8.6e-09 M
- IC50 (MV4-11, read-out: IC50 [M] (ProliFiler-140), MV4-11 (Blood)): 1.5e-09 M
- IC50 (NALM-6, read-out: IC50 [M] (ProliFiler-140), NALM-6 (Blood)): 2.47e-09 M
- IC50 (NCI-H82, read-out: IC50 [M] (ProliFiler-140), NCI-H82 (Lung)): 8.8e-08 M
- IC50 (NCI-H292, read-out: IC50 [M] (ProliFiler-140), NCI-H292 (Lung)): 3.8e-08 M
- IC50 (NCI-H441, read-out: IC50 [M] (ProliFiler-140), NCI-H441 (Lung)): 5.05e-08 M
- IC50 (NCI-H460, read-out: IC50 [M] (ProliFiler-140), H460 (Lung)): 5.5e-09 M
- IC50 (NCI-H838, read-out: IC50 [M] (ProliFiler-140), NCI-H838 (Lung)): 7.4e-08 M
- IC50 (NCI-H1048, read-out: IC50 [M] (ProliFiler-140), NCI-H1048 (Lung)): 4e-09 M
- IC50 (NCI-H1299, read-out: IC50 [M] (ProliFiler-140), H1299 (Lung)): 5.38e-08 M
- IC50 (NCI-H1437, read-out: IC50 [M] (ProliFiler-140), NCI-H1437 (Lung)): 1.85e-08 M
- IC50 (NCI-H1563, read-out: IC50 [M] (ProliFiler-140), NCI-H1563 (Lung)): 1.1e-07 M
- IC50 (NCI-H1573, read-out: IC50 [M] (ProliFiler-140), NCI-H1573 (Lung)): 9e-08 M
- IC50 (NCI-H1581, read-out: IC50 [M] (ProliFiler-140), NCI-H1581 (Lung)): 4.66e-08 M
- IC50 (NCI-H1703, read-out: IC50 [M] (ProliFiler-140), NCI-H1703 (Lung)): 5.1e-08 M
- IC50 (NCI-H1838, read-out: IC50 [M] (ProliFiler-140), NCI-H1838 (Lung)): 7.7e-08 M
- IC50 (NCI-H2009, read-out: IC50 [M] (ProliFiler-140), NCI-H2009 (Lung)): 2.66e-08 M
- IC50 (NCI-H2228, read-out: IC50 [M] (ProliFiler-140), H2228 (Lung)): 4.53e-08 M
- IC50 (NCI-H2286, read-out: IC50 [M] (ProliFiler-140), NCI-H2286 (Lung)): 1.7e-08 M
- IC50 (NCI-N87, read-out: IC50 [M] (ProliFiler-140), NCI-N87 (Stomach)): 7.5e-08 M
- IC50 (OCI-AML-3, read-out: IC50 [M] (ProliFiler-140), OCI-AML3 (Blood)): 1.3e-08 M
- IC50 (OCI-AML-5, read-out: IC50 [M] (ProliFiler-140), OCI-AML5 (Blood)): 6e-09 M
- IC50 (OCI-LY19, read-out: IC50 [M] (ProliFiler-140), OCI-LY19 (Blood)): 2.83e-09 M
- IC50 (OPM-2, read-out: IC50 [M] (ProliFiler-140), OPM-2 (Blood)): 2.61e-08 M
- IC50 (OVCAR-3, read-out: IC50 [M] (ProliFiler-140), OVCAR-3 (Ovary)): 7.9e-08 M
- IC50 (P31-FUJ, read-out: IC50 [M] (ProliFiler-140), P31/FUJ (Blood)): 2.3e-08 M
- IC50 (PANC-1, read-out: IC50 [M] (ProliFiler-140), PANC-1 (Pancreas)): 2e-07 M
- IC50 (RL95-2, read-out: IC50 [M] (ProliFiler-140), RL95-2 (Endometrium)): 1.25e-07 M
- IC50 (RPMI-8226, RPMI 8226): 1.2e-08 M
- IC50 (RPMI-8226, read-out: IC50 [M] (ProliFiler-140), RPMI 8226 (Blood)): 1.19e-08 M
- IC50 (SAOS-2, read-out: IC50 [M] (ProliFiler-140), Saos-2 EC (Bone)): 6.63e-08 M
- IC50 (SCLC-21H, read-out: IC50 [M] (ProliFiler-140), SCLC-21H (Lung)): 2.56e-08 M
- IC50 (SJSA-1, read-out: IC50 [M] (ProliFiler-140), SJSA-1 (Bone)): 9.77e-08 M
- IC50 (SK-BR-3, read-out: IC50 [M] (ProliFiler-140), SK-BR-3 (Breast)): 4.2e-08 M
- IC50 (SK-ES1, read-out: IC50 [M] (ProliFiler-140), SK-ES-1 (Bone)): 2.71e-09 M
- IC50 (SK-LU-1, read-out: IC50 [M] (ProliFiler-140), SK-LU-1 (Lung)): 2.3e-08 M
- IC50 (SK-MEL3, read-out: IC50 [M] (ProliFiler-140), SK-MEL-3 (Skin)): 1.6e-07 M
- IC50 (SK-N-FI, read-out: IC50 [M] (ProliFiler-140), SK-N-FI (Brain)): 1.39e-07 M
- IC50 (SK-N-MC, read-out: IC50 [M] (ProliFiler-140), SK-N-MC (Brain)): 1.6e-09 M
- IC50 (SK-N-SH, read-out: IC50 [M] (ProliFiler-140), SK-N-SH (Brain)): 1.1e-07 M
- IC50 (SK-OV-3, read-out: IC50 [M] (ProliFiler-140), SK-OV3 (Ovary)): 3.72e-08 M
- IC50 (SNU1, read-out: IC50 [M] (ProliFiler-140), SNU-1 (Stomach)): 2.3e-08 M
- IC50 (SNU-16, read-out: IC50 [M] (ProliFiler-140), SNU-16 (Stomach)): 6.23e-08 M
- IC50 (SU-DHL-5, read-out: IC50 [M] (ProliFiler-140), SU-DHL-5 (Blood)): 2.6e-09 M
- IC50 (SW480, read-out: IC50 [M] (ProliFiler-140), SW480 (Colon)): 5.51e-08 M
- IC50 (SW948, read-out: IC50 [M] (ProliFiler-140), SW948 (Colon)): 1.43e-07 M
- IC50 (SW1783, read-out: IC50 [M] (ProliFiler-140), SW-1783 (Brain)): 4.85e-08 M
- IC50 (SW-620, SW620): 1.5e-07 M
- IC50 (SW-620, read-out: IC50 [M] (ProliFiler-140), SW620 (Colon)): 1.53e-07 M
- IC50 (SiHa, read-out: IC50 [M] (ProliFiler-140), SiHa (Ovary)): 1.13e-07 M
- IC50 (T47D, T-47D): 9.8e-08 M
- IC50 (T47D, read-out: IC50 [M] (ProliFiler-140), T-47D (Breast)): 9.8e-08 M
- IC50 (T98G, read-out: IC50 [M] (ProliFiler-140), T98G (Brain)): 8.08e-08 M
- IC50 (U2OS, read-out: IC50 [M] (ProliFiler-140), U2OS (Bone)): 3.19e-08 M
- IC50 (U-87 MG, read-out: IC50 [M] (ProliFiler-140), U87MG (Brain)): 1.5e-07 M
- IC50 (U-118-MG, read-out: IC50 [M] (ProliFiler-140), U118MG (Brain)): 1.86e-07 M
- IC50 (U-251, read-out: IC50 [M] (ProliFiler-140), U251MG (Brain)): 1.2e-07 M
- IC50 (U-266, read-out: IC50 [M] (ProliFiler-140), U-266 (Blood)): 9.38e-09 M
- IC50 (U-937, read-out: IC50 [M] (ProliFiler-140), U-937 (Blood)): 1.15e-08 M
- IC50 (ZR-75-1, read-out: IC50 [M] (ProliFiler-140), ZR-75-1 (Breast)): 3.07e-07 M
- Reductive Activation Index (Hs 746T (Stomach)): 13
- Reductive Activation Index (HuH7 (Liver)): 6.45
- Reductive Activation Index (Hutu 80 (Duodenum)): 5.62 and 5.6
- Reductive Activation Index (JIMT-1 (Breast)): 15
- Reductive Activation Index (K562 (Blood)): 8.6
- Reductive Activation Index (KARPAS 299 (Blood)): 6.55
- Reductive Activation Index (KG-1 (Blood)): 3.24
